Measured values taken from patent US20090143279A1 (priority 2007, published 2009).
Like-named read-outs stand apart in the source and are kept apart here.

Columns and labels:
[1] = test system: OXPHOS gene expression; assay type: cell-based, mouse; details: for GE-HTS (composite Z-score): normalized score vs mock-treated (DMSO) wells
[2] = test system: nuOXPHOS transcripts; assay type: cell-based, mouse; details: for nucOX (composite Z-score): normalized score vs mock-treated (DMSO) wells
[3] = test system: mtOXPHOS transcripts; assay type: cell-based, mouse; details: for mitoOX (composite Z-score): normalized score vs mock-treated (DMSO) wells
[4] = test system: reactive oxygen species; assay type: cell-based, mouse; details: for ROS (composite Z-score): normalized score vs mock-treated (DMSO) wells
[5] = test system: cellular dehydrogenase activity; details: for MTT (composite Z-score): normalized score vs mock-treated (DMSO) wells
[6] = test system: mitochondrial membrane potential; assay type: cell-based, mouse; details: for ΔΨm (composite Z-score): normalized score vs mock-treated (DMSO) wells
[7] = test system: cytochrome c; assay type: cell-based, mouse; details: for cyt c (composite Z-score): normalized score vs mock-treated (DMSO) wells
[8] = test system: C2C12 myotubes; details: for Viability (composite Z-score): normalized score vs mock-treated (DMSO) wells
[9] = normalized composite Z-score vs mock-treated (DMSO) wells, Conc 20 μM
[10] = composite Z-score vs DMSO, Conc 20 μM
[11] = 14.26 μM, composite Z-score vs DMSO
[12] = 20 μM, composite Z-score vs DMSO

Row | SMILES | GE-HTS [1, 10] | nucOX [2, 10] | mitoOX [3, 10] | ROS [4, 10] | MTT [5, 10] | ΔΨm [6, 10] | cyt c [7, 10] | Viability [8, 10] | GE-HTS (composite Z-score) ([1]; Conc 20 μM) | nucOX (composite Z-score) ([2]; Conc 20 μM) | mitoOX (composite Z-score) ([3]; Conc 20 μM) | ROS (composite Z-score) ([4]; Conc 20 μM) | MTT (composite Z-score) ([5]; Conc 20 μM) | ΔΨm (composite Z-score) ([6]; Conc 20 μM) | cyt c (composite Z-score) ([7]; Conc 20 μM) | Viability (composite Z-score) ([8]; Conc 20 μM) | also measured
1 | COC(=O)c1c(C)c2c(c(C)c1OC)OC(=O)c1c(C)c(Cl)c(OC)c(Cl)c1O2 [leoidin dimethyl ether] |  |  |  |  |  |  |  |  |  |  |  |  |  |  |  |  | GE-HTS [1, 9]: −1.008; nucOX [2, 9]: −0.595; mitoOX [3, 9]: −1.691; ROS [4, 9]: −0.121; MTT [5, 9]: −0.726; ΔΨm [6, 9]: −0.320; cyt c [7, 9]: 1.032; Viability [8, 9]: 0.677
2 | COC(=O)c1c(C)c2c(c(C)c1O)OC(=O)c1c(C)c(Cl)c(O)c(Cl)c1O2 [leoidin] | −0.611 | −0.523 | −0.638 | 1.481 | 0.994 | −1.352 | 0.341 | 0.035 |  |  |  |  |  |  |  |  | 
3 | CC1=CC(=O)C2=C(C)CC[C@@H]3[C@H](OC(=O)[C@H]3C)[C@@H]12 [leucodin] |  |  |  |  |  |  |  |  | −0.300 | −0.270 | −0.261 | 0.695 | −1.134 | −0.355 | −0.301 | −0.525 | 
4 | CC1=CC(=O)C2=C(C)CC[C@@H]3[C@H](OC(=O)[C@H]3C)[C@@H]12 [leucomisine] |  |  |  |  |  |  |  |  |  |  |  |  |  |  |  |  | GE-HTS (composite Z-score) ([1]; Conc 16.24 μM): −0.450; nucOX (composite Z-score) ([2]; Conc 16.24 μM): −0.405; mitoOX (composite Z-score) ([3]; Conc 16.24 μM): −0.470; ROS (composite Z-score) ([4]; Conc 16.24 μM): 0.368; MTT (composite Z-score) ([5]; Conc 16.24 μM): −1.034; ΔΨm (composite Z-score) ([6]; Conc 16.24 μM): 0.151; cyt c (composite Z-score) ([7]; Conc 16.24 μM): −0.568; Viability (composite Z-score) ([8]; Conc 16.24 μM): −0.439
5 | CC1(C)O[C@H]2CC(=O)OC[C@]23[C@H]2CC[C@@]4(C)[C@H](c5ccoc5)OC(=O)[C@H]5O[C@]54[C@]2(C)C(=O)C[C@@H]13 [limonin] | −0.197 | −0.317 | 0.127 | 1.165 | −1.564 | −0.668 | 0.042 | −0.818 |  |  |  |  |  |  |  |  | 
6 | CC(C)(C#N)O[C@@H]1O[C@H](CO)[C@@H](O)[C@H](O)[C@H]1O [linamarin] |  |  |  |  |  |  |  |  | −1.024 | −0.847 | −1.232 | −0.189 | −1.611 | −0.333 | −0.052 | 0.796 | 
7 | CCCCCc1c2c(cc(O)c1C(=O)O)OC(=O)c1c(cc(OC)cc1C(=O)CCCC)O2 [lobaric acid] | −0.455 | −0.499 | −0.343 | 0.860 | −0.427 | −0.164 | −0.020 | 0.082 |  |  |  |  |  |  |  |  | 
8 | C[C@@H]1[C@H]2[C@H](O[C@@H]3O[C@H](CO)[C@@H](O)[C@H](O)[C@H]3O)OC=C(C(=O)O)[C@H]2C[C@@H]1O [loganic acid] |  |  |  |  |  |  |  |  | −0.463 | −0.274 | −0.800 | −0.346 | −0.538 | −0.193 | −0.485 | 1.214 | 
9 | O=C1CC[C@]23/C=C/C(=O)NCCCCNCCCNC(=O)/C=C/c4ccc(c2c4)O[C@@H]3C1 [lunarine] | −0.945 | −0.880 | −0.856 | 0.385 | −0.938 | −0.795 | 0.685 | −0.579 |  |  |  |  |  |  |  |  | 
10 | C[C@@H]1C[C@H]2CC(=O)[C@H]3CCCN4CCC[C@H]2[C@]34C1 [lycopodine] | −0.150 | −0.028 | −0.411 | 0.500 | −1.139 | −0.239 | −0.093 | −0.466 |  |  |  |  |  |  |  |  | 
11 | Oc1ccc2c(c1)OC[C@H]1c3cc4c(cc3O[C@@H]21)OCO4 [maackiain] |  |  |  |  |  |  |  |  | −0.561 | −0.285 | −1.049 | 0.879 | −0.578 | 0.391 | 0.969 | −1.052 | 
12 | CCN(CC)CCNC(=O)COc1ccc(OC)cc1 [mefexamide] |  |  |  |  |  |  |  |  |  |  |  |  |  |  |  |  | GE-HTS [1, 11]: −0.340; GE-HTS [1, 12]: −0.215; nucOX [2, 11]: −0.498; nucOX [2, 12]: −0.253; mitoOX [3, 11]: 0.009; mitoOX [3, 12]: −0.101; ROS [4, 11]: 1.172; ROS [4, 12]: 0.837; MTT [5, 11]: −1.363; MTT [5, 12]: −1.270; ΔΨm [6, 11]: −0.719; ΔΨm [6, 12]: −0.643; cyt c [7, 11]: 0.129; cyt c [7, 12]: −0.257; Viability [8, 11]: −0.541; Viability [8, 12]: −2.120
